Values of other authors, collected in patent publication US8460861B2, “Method for producing hydrogen-containing fluid able to be used in a living organism” (MIZ Co. Ltd., priority 2009, dated 2013).

Conditions: 20 C degrees under 1 barometric pressure

- saturation concentration: 1.6 ppm
Compound: [HH] [molecular hydrogen]
